In data set [1] the test system is C57BL/6 mice. Put plainly: Open field test (OFT): locomotion and time in central quadrant. It is filed as in vivo. Particulars: for dose-dependent reduction in movement in the OFT / time spent in the center of the OFT (anxiety-reducing effect): 30 minutes after administration, 0.3-30 mg/kg p.o.; for ED50: po, 0.5 h; for Movement Emax ± S.E.M.: OFT distance in 5 minutes. How it is done: (§1) Female and male C57BL/6 mice between 8 and 12 weeks of age were used for these studies. Animals were group housed at the Laboratory Animal Services Unit (LASU) at the University of Saskatchewan (5 mice/cage for females, 3 mice/cage for males) with a standard 12:12 light-dark cycle, ad libitum access to food and water, and environmental enrichment. All compounds were prepared in a vehicle composed of ethanol and kolliphor in saline (1:1:8) for i.v. tail vein injections or olive oil for oral gavage (p.o.) at the doses indicated in description of the figures. Compounds were administered at the doses indicated in mg/kg body weight, with body weights being measured on the same day as drug administration. Experimenters were blinded to treatment for all assessments and analyses. Animals were purchased from Charles River Labs (Senneville, QC), rather than bred, to reduce animal numbers. At the end of experiments, mice were euthanized via isoflurane overdose and cardiac puncture. In all cases, experiments were performed with the approval of the University Animal Care Committee (UACC) at the University of Saskatchewan (Animal Use Protocol #20200043) and in keeping with the guidelines of the Canadian Council on Animal Care (CCAC).
(§2) Mice were assessed in the ‘tetrad’ battery of physiological and behavioural assessments. This included, in the following order: a bar holding assessment of catalepsy, rectal thermometer assessment of body temperature, a test of nociception in the warm water tail flick assay, and a test of locomotion and anxiety in the open field test (OFT). The precise timing of each measurement are stated in description of the figures. The same animals were used for all four measures of the tetrad.
Locomotion was measured in the open field test (OFT) after compound administration. Mice were placed in the centre of an open chamber measuring 1 m×1 m for 5 minutes. Total distance travelled and time spent in the central quadrant of the field are recorded on a video camera, and the video analyzed in EthoVision XT (Noldus Information Technology Inc., Leesburg, VA).

A further data set relates to Long Evans rats. Particulars: CBC 3-30 mg/kg following D9-THC 3 mg/kg intraperitoneal; cited from earlier work.
The test system of data set [2] is C57BL/6 mice. As to the kind of experiment: Catalepsy in the bar (ring) holding assay, tetrad. It is filed as in vivo. Particulars: for Lethargy Emax ± S.E.M.: catalepsy % MPE 60 sec, 5 min after 0.3-30 mg/kg p.o.; for dose-dependent catalepsy: ring holding assay 5 minutes after treatment, 0.3-30 mg/kg p.o. As to the method:
as §1, §2
Catalepsy was assessed in the bar holding assay after compound administration with mice placed so that their forepaws clasped a 0.7-cm ring clamp 4.5 cm above the surface of the testing space. The length of time the ring was held was recorded up to 60 sec (i.e., percent maximum possible effect [MPE] 60 seconds) with the trial ending if the mouse turned its […] or body or made three consecutive escape attempts. Activation of CB1R is associated with increased catalepsy.

A short description of data set [3]: Pharmacokinetic measurement of CBC in blood (HPLC-MS/MS). Particulars: analyte CBC.
Data set [4] deals with C57BL/6 mice. Put plainly: Elevated plus maze (EPM), modelled anxiety. It is filed as in vivo. The settings on record: 10 mg/kg p.o., 30 minutes after treatment; for time spent in the closed arms of the EPM: post-hoc no differences. How it is done: (§3) In addition to the physiological assessment of the tetrad, mice were subjected to several behavioural assessments detailed here. These experiments followed a set timeline beginning 30 minutes after compound administration, based on an approximation that the maximum blood concentration of drug occurred 30-60 minutes after animals had received oral gavage. In these experiments the same type of mice were used for elevated plus maze, y-maze, and forced swim test back-to-back-to-back; however, this was a separate cohort of mice from those used in tetrad or PK experiments.
Modelled anxiety—the elevated plus maze: Mice were placed in the centre space of an elevated plus maze (EPM) standing 45 cm above the floor and having 2 closed-walled arms and 2 open arms each measuring 45 cm long. Mice were placed facing an open arm and their movement recorded for 5 minutes beginning 30 minutes after drug administration. Total distance travelled, arm entries, and time spent in each arm was recorded on a video camera and scored by an individual blinded to treatment group.

The test system of data set [5] is C57BL/6 mice. Put plainly: y-maze, modelled exploratory behaviour and cognition. It is filed as in vivo. The settings on record: 10 mg/kg p.o., 40 min after administration. How it is done:
as §3
Modelled exploratory behaviour and cognition—the y-maze: The y-maze consists of three […] long×15 cm wide arms equally spaced 120° apart. Mice were allowed to habituate to the y-maze with one arm closed off (the novel arm) for 15 minutes 1 day prior to the experiment. On testing day, mice were placed in the centre space the y-maze facing the novel arm. Movement and arm entries were recorded for 5 min beginning 40 minutes after drug administration. Total distance travelled, arm entries, and % correct alternations between each arm were recorded on a video camera and scored by an individual blinded to treatment group.

A further data set concerns rodents. The settings on record: intravenously administered, high doses (30 and 100 mg/kg); cited from earlier work.
Data set [6] has as its system C57BL/6 mice. Put plainly: Nociception in the warm water tail flick assay, tetrad. Particulars: for ED50: Mus musculus, po, 20 min, tail flick 52° C., read-out: Pain relief ED50 (95% C.I.); for ED50 / Pain relief Emax ± S.E.M.: 20 min after 0.3-30 mg/kg p.o.; for Pain relief Emax ± S.E.M.: tail flick % MPE 20 sec; for dose-dependent reduction in pain sensation: warm water tail flick 20 minutes after administration, 0.3-30 mg/kg p.o. It is filed as in vivo. As to the method: as §1, §2
Activation of CB1R is associated with elevated tail-flick latency (i.e. less nociception as indicated by the mouse keeping their tail in the water longer).

Data set [7] concerns C57BL/6 mice. Put plainly: Body temperature by rectal thermometer, tetrad. It is filed as in vivo. Particulars: for dose-dependent hypothermia: 10 min after administration, 0.3-30 mg/kg p.o.; for Body temperature Emax ± S.E.M.: change in body temperature 10 min after 0.3-30 mg/kg p.o. As to the method: as §1, §2
Body temperature was measured after compound administration by using a rectal thermometer. Activation of CB1R is associated with reduced body temperature.

For data set [8] the following is noted: oral gavage once daily for 14 days, cited from earlier work.
A short description of data set [9]: Pharmacokinetic measurement of THC in blood (HPLC-MS/MS). The settings on record: analyte THC.
Data set [10] deals with C57BL/6 mice. Put plainly: Forced swim test (FST), modelled behavioural despair and resiliency. It is filed as in vivo. The settings on record: 10 mg/kg p.o., 50 min after administration. As to the method:
as §3
Modelled behavioural despair and resiliency—the forced swim test: Mice were placed in 800 mL of 22° C. water in a clear beaker with a 10 cm diameter such that the depth of water was approximately 10-11 cm. Mice were allowed to swim and their movement recorded for 5 minutes beginning 50 minutes after drug administration. Time spent swimming and time spent immobile was recorded on a video camera and scored by an individual blinded to treatment group.

Another data set concerns dogs. Particulars: cited from earlier work.
Setting [11] is: Mus musculus, OFT locomotion 30 min after 0.3-30 mg/kg p.o., read-out: Movement ED50 (95% C.I.).
Setting [12] is: time in central quadrant of OFT, 30 min after 0.3-30 mg/kg p.o.

Results on three compounds are retold here after patent US20260183316A1, “CANNABICHROMENE-TYPE CANNABINOID COMPOSITIONS, METHODS AND USES THEREOF” (Cronos Group Inc., priority 2022, published 2026).

“And” between values parts separate entries of the source, which are not always exact repeats. Identical values can stand only once.

For orientation: ED50 means the midpoint of the dose-response relation. For the compound `CCCCCc1cc(O)c2c(c1)OC(C)(CCC=C(C)C)C=C2` (racemic) [CBC, cannabichromene], in the data set on C57BL/6 mice [1], the “dose-dependent reduction in movement in the OFT” value is recorded as “dose-dependent reduction in movement” and the “time spent in the center of the OFT (anxiety-reducing effect)” value is listed as “anxiety-reducing effect”. The ED50 in the data set on C57BL/6 mice [1] (setting [11]) is 35 mg/kg. Also, the “Movement Emax ± S.E.M.” value in the data set on C57BL/6 mice [1] (30 min after 0.3-30 mg/kg p.o.) is 1,600 ± 340 cm. The “Anxiety-reduction Emax ± S.E.M.” value in the data set with C57BL/6 mice [1] (setting [12]) is 32 ± 7.2 s. In the data set on Long Evans rats, the “perceptual effects of D9-THC” value was “did notsignificantly alter the perceptual effects of D9-THC” and the response rates entry was “decrease response rates”. In the data set with C57BL/6 mice [2], the “Lethargy Emax ± S.E.M.” value was 1.1 ± 0.16 % and the dose-dependent catalepsy entry is recorded as “no dose-dependent catalepsy”. Further, in data set [3] (10 mg/kg i.v., Combined), the F stood at 100%. The F in [3] (10 mg/kg i.v., Female) was determined as 100%. The compound further returned a F in data set [3] (10 mg/kg i.v., Male) of 100%. In addition, in data set [3] (10 mg/kg p.o., Combined), the F is given as 39%. Further, the F in data set [3] (10 mg/kg p.o., Female) is 53%. This compound also registered a F in [3] (10 mg/kg p.o., Male) of 27%. In the data set on C57BL/6 mice [4], the “open arm entries in the EPM” value is listed as “trend toward CBC producing more open arm entries than other groups, this was not statistically significant” and the “time spent in the closed arms of the EPM” value is listed as “trend toward less time spent in the closed arms”. Also, the “% correct alternations in the y-maze” value in the data set with C57BL/6 mice [5] is “increased % correct alternations compared to vehicle”. The tetrad effects entry with rodents was “produced locomotor suppression, catalepsy, and hypothermia consistently at high doses”. Further, in the data set with C57BL/6 mice [6], the ED50 is greater than 30 mg/kg, the “Pain relief Emax ± S.E.M.” value is given as 37 ± 13% and the “dose-dependent reduction in pain sensation” value was “dose-dependent pain-relieving effects”. Further, in the data set on C57BL/6 mice [7], the dose-dependent hypothermia result is “no dose-dependent hypothermia” and the “Body temperature Emax ± S.E.M.” value was 0.53 ± 0.27 °C. For the same compound, in data set [8], the “concentrations in brain tissue” value is “highest concentrations in brain tissue”. For the same compound, in [8] (of the four cannabinoids tested), the “maximum observed concentration and AUC in plasma” value was “highest maximum observed concentration and AUC”.
Regarding `CCCCCc1cc(O)c2c(c1)OC(C)(C)[C@@H]1CCC(C)=C[C@@H]21` [THC, tetrahydrocannabinol], in the data set with C57BL/6 mice [1], the “dose-dependent reduction in movement in the OFT” value is listed as “dose-dependent reduction in movement” and the “time spent in the center of the OFT (anxiety-reducing effect)” value is listed as “dose-dependent increase in the total time spent in the center of the OFT”. Besides, the ED50 in the data set with C57BL/6 mice [1] (setting [11]) is roughly 6.6 mg/kg. The ED50 in the data set with C57BL/6 mice [1] (Mus musculus, time in central quadrant of OFT, 30 min after 0.3-30 mg/kg p.o., read-out: Anxiety-reduction ED50 (95% C.I.)) is greater than 30 mg/kg. In the data set on C57BL/6 mice [1] (Mus musculus, OFT, versus vehicle-treated level of approximately 3,300 cm in 5 minutes, read-out: reduction in movement at maximum effect), the Emax is 48%. The “Movement Emax ± S.E.M.” value with C57BL/6 mice [1] (30 min after 0.3-30 mg/kg p.o.) was 1,700 cm and 1,700 ± 980 cm. Also, in the data set on C57BL/6 mice [1] (setting [12]), the “Anxiety-reduction Emax ± S.E.M.” value is 81 ± 72 s. The ED50 in the data set on C57BL/6 mice [2] (Mus musculus, po, 5 min, catalepsy 5 min after 0.3-30 mg/kg p.o., male and female combined, read-out: Lethargy ED50 (95% C.I.)) was roughly 12 mg/kg. Also, in the data set with C57BL/6 mice [2], the “Lethargy Emax ± S.E.M.” value is 76% and 76 ± 16%; the dose-dependent catalepsy result is “increasing catalepsy in a dose-dependent manner”. Further, in the data set on C57BL/6 mice [4], the “overall movement in the EPM” value is given as “reduced overall movement in the EPM, although this change was not statistically significant”; the “time in the center of the EPM” value was “more time in the center compared to 1:6.92 (CBC:THC)”; the “time spent in the closed arms of the EPM” value is on record as “trend toward less time spent in the closed arms”. In addition, the “time in the open arms of the EPM” value in the data set with C57BL/6 mice [4] (not statistically significant) is “appeared to suppress time in the open arms”. In the data set with C57BL/6 mice [5], the “% correct alternations in the y-maze” value was “appeared to reduce correct alternations”, the “overall locomotion in the y-maze” value is “reduced overall locomotion” and the “total arm entries in the y-maze” value is “lower”. In the data set with C57BL/6 mice [6], the ED50 was roughly 3.8 mg/kg; the “Pain relief Emax ± S.E.M.” value was 57% and 57 ± 16%; the “dose-dependent reduction in pain sensation” value is recorded as “dose-dependent reduction in pain sensation”. For the same compound, the F in [9] (10 mg/kg i.v., Combined) is recorded as 100%. For the same compound, the F in data set [9] (10 mg/kg i.v., Female) is reported as 100%. The same compound displayed a F in [9] (10 mg/kg i.v., Male) of 100%. Also, the F in data set [9] (10 mg/kg p.o., Combined) came to 15%. The compound further registered a F in data set [9] (10 mg/kg p.o., Female) of 33%. For the same compound, the F in data set [9] (10 mg/kg p.o., Male) is on record as 3.7%. Also, in the data set on C57BL/6 mice [7], the dose-dependent hypothermia entry is “dose-dependent hypothermia”; the “Body temperature Emax ± S.E.M.” value was −2.8 °C and −2.8 ± 0.20 °C. The ED50 in the data set on C57BL/6 mice [7] (Mus musculus, po, 10 min, 10 min after 0.3-30 mg/kg p.o., read-out: Body temperature ED50 (95% C.I.)) was roughly 0.2 mg/kg. In addition, the “time swimming and time immobile in the FST compared to vehicle” value with C57BL/6 mice [10] was “further suppressed swimming time and increased immobile time”.
Turning to `CCCCCc1cc(OC(C)=O)c2c(c1)OC(C)(C)[C@@H]1CCC(C)=C[C@@H]21` [THC-OAc, tetrahydrocannabinol-o-acetate], the “degree of ataxia compared with Δ9-THC” value with dogs was 2 fold.
